Target: T1, HIV-1 integrase (Human immunodeficiency virus type 1 group M subtype B, UniProt P04585)
T1 construct: Purified recombinant HIV-1 integrase was incubated with immobilized precleaved substrate DNA
Test: In vitro activity against integrase, Method A (immobilized precleaved substrate DNA, biotinylated target DNA, 96 well plate)
Type: biochemical
Details: Assay Method A, read-out: Percent inhibition of HIV Integrase at 70 uM
Method: The in vitro activities, against integrase, of compounds of the present invention were measured by one of the following three methods.
In Method A, the in vitro activity against integrase was measured in a manner which was similar to previously disclosed methods (cf. Hazuda, D. J.; Felock, P.; Witmer, M.; Wolfe, A.; Stillmock, K.; Grobler, J. A.; Espeseth, A.; Gabryelski, L.; Schleif, W.; Blau, C.; Miller, M. D. Science, 2000, 287, 646) Purified recombinant HIV-1 integrase was incubated with immobilized precleaved substrate DNA in a 96 well plate for 20 min at 37° C. After the integration complex was formed, compounds at desired concentrations were added to the wells followed by a 10 min incubation at 37° C. Biotinyted Target DNA was then added and the reaction was carried out for an additional 1 hour at 37° C. Wells were then washed thoroughly to remove any free DNA and integration activity was measured by using a commercial kit to quantitate the amount of biotinyted target DNA integrated into the substrate.

Compound	inhibition at 70 µM
CN(C(=O)/C=C(\O)C(=O)O)C(c1ccc(F)cc1)c1ccc(F)cc1 [Compound 5, 3-{[Bis-(4-fluoro-phenyl)-methyl]-methyl-carbamoyl}-2-hydroxy-acrylic acid]	65%
CC(C)N(Cc1ccc(F)cc1)C(=O)/C=C(\O)C(=O)O [Compound 29, 3-[(4-Fluoro-benzyl)-isopropyl-carbamoyl]-2-hydroxy-acrylic acid]	38%
CN(Cc1ccccc1F)C(=O)/C=C(\O)C(=O)O [Compound 38, 3-[(2-Fluoro-benzyl)-methyl-carbamoyl]-2-hydroxy-acrylic acid]	70%
CN(Cc1csc2ccc(Cl)cc12)C(=O)/C=C(\O)C(=O)O [Compound 15, 3-[(5-Chloro-benzo[b]thiophen-3-ylmethyl)-methyl-carbamoyl]-2-hydroxy-acrylic acid]	97%
CC(C)(C)N(Cc1ccc(F)cc1)C(=O)/C=C(\O)C(=O)O [Compound 27, 3-[tert-Butyl-(4-fluoro-benzyl)-carbamoyl]-2-hydroxy-acrylic acid]	33.5%
CN(CCc1ccc(F)cc1)C(=O)/C=C(\O)C(=O)O [Compound 22, 3-{[2-(4-Fluoro-phenyl)-ethyl]-methyl-carbamoyl}-2-hydroxy-acrylic acid]	75%
O=C(O)/C(O)=C/C(=O)N(Cc1ccc(F)cc1)Cc1cccc(Cl)c1 [Compound 28, 3-[(3-Chloro-benzyl)-(4-fluoro-benzyl)-carbamoyl]-2-hydroxy-acrylic acid]	96.5%
CN(Cc1ccccc1)C(=O)/C=C(\O)C(=O)O [Compound 17, 3-(Benzyl-methyl-carbamoyl)-2-hydroxy-acrylic acid]	89.5%
CN(Cc1cccc(OCc2ccc(F)cc2)c1)C(=O)/C=C(\O)C(=O)O [Compound 3, 3-{[3-(4-Fluoro-benzyloxy)-benzyl]-methyl-carbamoyl}-2-hydroxy-acrylic acid]	99%
COc1cccc(CN(C)C(=O)/C=C(\O)C(=O)O)c1 [Compound 33, 2-Hydroxy-3-[(3-methoxy-benzyl)-methyl-carbamoyl]-acrylic acid]	90%
O=C(O)/C(O)=C/C(=O)N(Cc1ccc(F)cc1)c1ccc(F)cc1OCc1ccc(F)cc1 [Compound 88, 3-{(4-Fluoro-benzyl)-[4-fluoro-2-(4-fluoro-benzyloxy)-phenyl]-carbamoyl}-2-hydroxy-acrylic acid]	90%
CN(Cc1ccc(OCc2ccc(F)cc2)cc1)C(=O)/C=C(\O)C(=O)O [Compound 1, 3-{[4-(4-Fluoro-benzyloxy)-benzyl]-methyl-carbamoyl}-2-hydroxy-acrylic acid]	40%
CN(Cc1cccc(F)c1)C(=O)/C=C(\O)C(=O)O [Compound 40, 3-[(3-Fluoro-benzyl)-methyl-carbamoyl]-2-hydroxy-acrylic acid]	90%
O=C(O)/C(O)=C/C(=O)N(Cc1ccc(F)cc1)Cc1csc2ccc(Cl)cc12 [Compound 21, 3-[(5-Chloro-benzo[b]thiophen-3-ylmethyl)7(4-fluoro-benzyl)-carbamoyl]-2-hydroxy-acrylic acid]	98%
CN(Cc1cccc(-c2ccccc2)c1)C(=O)/C=C(\O)C(=O)O [Compound 34, 3-(Biphenyl-3-ylmethyl-methyl-carbamoyl)-2-hydroxy-acrylic acid]	85%
O=C(O)/C(O)=C/C(=O)N(Cc1ccc(F)cc1)Cc1ccc(F)cc1F [Compound 25, 3-[(2,4-Difluoro-benzyl)-(4-fluoro-benzyl)-carbamoyl]-2-hydroxy-acrylic acid]	96.5%
CN(Cc1cccc(C(F)(F)F)c1)C(=O)/C=C(\O)C(=O)O [Compound 37, 2-Hydroxy-3-[methyl-(3-trifluoromethyl-benzyl)-carbamoyl]-acrylic acid]	82.5%
O=C(O)/C(O)=C/C(=O)N(Cc1ccc(F)cc1)Cc1ccccc1Cl [Compound 19, 3-[(2-Chloro-benzyl)-(4-fluoro-benzyl)-carbamoyl]-2-hydroxy-acrylic acid]	96.5%
O=C(O)/C(O)=C/C(=O)N(Cc1ccc(F)cc1)Cc1ccc(Cl)cc1 [Compound 24, 3-[(4-Chloro-benzyl)-(4-fluoro-benzyl)-carbamoyl]-2-hydroxy-acrylic acid]	90%
CN(Cc1ccccc1Br)C(=O)/C=C(\O)C(=O)O [Compound 12, 3-[(2-Bromo-benzyl)-methyl-carbamoyl]-2-hydroxy-acrylic acid]	85%
O=C(O)/C(O)=C/C(=O)N(CCc1ccc(F)cc1)Cc1csc2ccc(Cl)cc12 [Compound 20, 3-{(5-Chloro-benzo[b]thiophen-3-ylmethyl)-[2-(4-fluoro-phenyl)-ethyl]-carbamoyl}-2-hydroxy-acrylic acid]	97.5%

Compound	inhibition at 70 µM
CN(Cc1ccc(F)c2ccccc12)C(=O)/C=C(\O)C(=O)O [Compound 41, 3-[(4-Fluoro-naphthalen-1-ylmethyl)-methyl-carbamoyl]-2-hydroxy-acrylic acid]	95%
O=C(O)/C(O)=C/C(=O)N(CCCc1ccccc1)Cc1ccc(F)cc1 [Compound 43, 3-[(4-Fluoro-benzyl)-(3-phenyl-propyl)-carbamoyl]-2-hydroxy-acrylic acid]	93.5%
O=C(O)/C(O)=C/C(=O)N(CCc1ccccc1)Cc1ccccc1 [Compound 13, 3-(Benzyl-phenethyl-carbamoyl)-2-hydroxy-acrylic acid]	94%
CN(Cc1ccccc1-c1ccccc1)C(=O)/C=C(\O)C(=O)O [Compound 39, 3-(Biphenyl-2-ylmethyl-methyl-carbamoyl)-2-hydroxy-acrylic acid]	85%
CN(Cc1ccc(OCc2ccccc2)cc1)C(=O)/C=C(\O)C(=O)O [Compound 36, 3-[(4-Benzyloxy-benzyl)-methyl-carbamoyl]-2-hydroxy-acrylic acid]	30%
Cc1ccc(CN(C)C(=O)/C=C(\O)C(=O)O)cc1 [Compound 30, 2-Hydroxy-3-[methyl-(4-methyl-benzyl)-carbamoyl]-acrylic acid]	84%
O=C(O)/C(O)=C/C(=O)N(Cc1ccc(F)cc1)Cc1ccc(F)c(F)c1 [Compound 26, 3-[(3,4-Difluoro-benzyl)-(4-fluoro-benzyl)-carbamoyl]-2-hydroxy-acrylic acid]	97%
CN(C(=O)/C=C(\O)C(=O)O)C(c1ccccc1)c1ccccc1 [Compound 7, 3-(Benzhydryl-methyl-carbamoyl)-2-hydroxy-acrylic acid]	32%
COc1ccc(CN(Cc2ccc(F)cc2)C(=O)/C=C(\O)C(=O)O)c(OC)c1 [Compound 35, 3-[(2,4-Dimethoxy-benzyl)-(4-fluoro-benzyl)-carbamoyl]-2-hydroxy-acrylic acid]	95.5%
CCN(Cc1ccc(F)cc1)C(=O)/C=C(\O)C(=O)O [Compound 32, 3-[Ethyl-(4-fluoro-benzyl)-carbamoyl]-2-hydroxy-acrylic acid]	93%
COCCN(Cc1ccc(F)cc1)C(=O)/C=C(\O)C(=O)O [Compound 42, 3-[(4-Fluoro-benzyl)-(2-methoxy-ethyl)-carbamoyl]-2-hydroxy-acrylic acid]	91%
CN(Cc1ccccc1OCc1ccc(F)cc1)C(=O)/C=C(\O)C(=O)O [Compound 82, 3-{[2-(4-Fluoro-benzyloxy)-benzyl]-methyl-carbamoyl}-2-hydroxy-acrylic acid]	80%
CC(c1ccccc1)N(Cc1ccc(F)cc1)C(=O)/C=C(\O)C(=O)O (centres unmarked) [Compound 23, 3-[(4-Fluoro-benzyl)-(1-phenyl-ethyl)-carbamoyl]-2-hydroxy-acrylic acid]	55%
O=C(O)CNC(=O)/C(O)=C/C(=O)N(Cc1ccc(F)cc1)Cc1ccc(F)cc1 [Compound 145, {3-[Bis-(4-fluoro-benzyl)-carbamoyl]-2-hydroxy-acryloylamino}-acetic acid]	95%
O=C(O)/C(O)=C/C(=O)N(CCc1ccc(F)cc1)Cc1ccccc1Cl [Compound 18, 3-{(2-Chloro-benzyl)-[2-(4-fluoro-phenyl)-ethyl]-carbamoyl}-2-hydroxy-acrylic acid]	89.5%
CN(Cc1cccc(Cc2ccc(F)cc2)c1)C(=O)/C=C(\O)C(=O)O [Compound 2, 3-{[3-(4-Fluoro-benzyl)-benzyl]-methyl-carbamoyl}-2-hydroxy-acrylic acid]	88%
COc1ccc(CN(C)C(=O)/C=C(\O)C(=O)O)cc1 [Compound 31, 2-Hydroxy-3-[(4-methoxy-benzyl)-methyl-carbamoyl]-acrylic acid]	82%
COc1ccc(C(c2ccc(OC)cc2)N(C)C(=O)/C=C(\O)C(=O)O)cc1 [Compound 6, 3-{[Bis-(4-methoxy-phenyl)-methyl]-methyl-carbamoyl}-2-hydroxy-acrylic acid]	75%
CN(C(=O)/C=C(\O)C(=O)O)C(c1ccc(F)cc1)c1cccnc1 (centres unmarked) [Compound 77, 3-{[(4-Fluoro-phenyl)-pyridin-3-yl-methyl]-methyl-carbamoyl}-2-hydroxy-acrylic acid]	60%
CN(C(=O)/C=C(\O)C(=O)O)C(c1ccc(Cl)cc1)c1ccc(Cl)cc1 [Compound 4, 3-{[Bis-(4-chloro-phenyl)-methyl]-methyl-carbamoyl}-2-hydroxy-acrylic acid]	90%
